Assays:
[1] = system: Staphylococcus aureus ATCC 29213; experiment: Antibacterial broth dilution assay against S. aureus (modified CLSI); format: cell-based; settings: for S. aureus IC50 / IC50: in vitro; for IC50: converted with molecular weight; for X more potent than ciprofloxacen: molar IC50 ratio versus ciprofloxacen
Procedure, shortened: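 Growth read by optical density at 530 nm, duplicate wells, 1% final DMSO. Staphylococcus spp.: Mueller-Hinton pH 7.3, 5.0×10^5 CFU/ml, 35 °C for 16-20 h; Candida spp.: RPMI/dextrose/glutamine/MOPS pH 6.0, 1.5×10^3 CFU/ml, 35 °C for 46-50 h. Reported values are 50% inhibition versus controls, no-growth MIC, and killing MFC/MBC.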

[2] = system: S. mansoni newly transformed schistosomula (NTS); experiment: In vitro testing on Schistosoma mansoni newly transformed schistosomula (NTS), viability score; format: cell-based; settings: NTS S. mansoni, 33 μM, 72 h
Procedure, shortened: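 Mechanically transformed S. mansoni (Liberian strain) NTS, cultured overnight, exposed at 100 per well to compound (from 10 mM DMSO stock; ≤1% DMSO controls) at 37 °C, 5% CO2 for 72 h. Viability scored microscopically from 3 (normal activity, intact tegument) to 0 (dead, granulated).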

Row | SMILES | S. aureus IC50 [1] [µg/mL] | IC50 [1] [µM] | X more potent than ciprofloxacen [1] | Effect at 72 h (%) [2] [%] | IC50 ([1]; HCl salt) [µM]
1 | c1ccc(CN2CCN3CCCN(CC2)CCN(Cc2ccccc2)CC3)cc1 [AW009, Bn2PBCyclen] | 2.010 | 5.12 | 0.05 |  | 
2 | [Cl][Mn-2]([Cl])([Cl])[Cl].[Mn+2].c1ccc(CN2CCCN3CCCN(CCCN(Cc4ccccc4)CC3)CC2)cc1 [BME08, [Mn(Bn2PBCyclam)][MnCl4]] | 0.800 | 1.19 | 0.23 |  | 
3 | CC(=O)[O-].F[P-](F)(F)(F)(F)F.[Ni+2].c1ccc(CN2CCCN3CCCN(CCCN(Cc4ccccc4)CC3)CC2)cc1 [DJD22, [Ni(Bn2PBCyclam)(OAc)]PF6] | 4.630 | 6.78 | 0.04 |  | 
4 | c1cc(CN2CCCN3CCCN(CCCNCC3)CC2)ccc1CN1CCCN2CCCN(CCCNCC2)CC1 [SLK10, p-H2PBCyclams] | 1.410 | 2.42 | 0.11 |  | 
5 | CN1CCCN2CCN(CCCN(Cc3cccc(CN4CCCN5CCN(C)CCCN(CC5)CC4)c3)CC2)CC1.Cl.Cl.Cl.Cl.Cl.Cl.Cl.Cl [TJS04, m-CB-cyclams HCl salt] | 9.280 |  | 0.03 | 24.32 | 9.53

From patent US12139481B2, “Compositions comprising macrocycle derivatives incorporating bridged macrocycles and methods of producing and using same” (Southwestern Oklahoma State University, priority 2015, dated 2024)
